According to patent US20230091848A1, “DISEASE DETECTION AND TREATMENT BASED ON PHENYLACETYL GLUTAMINE LEVELS” (The Cleveland Clinic Foundation, priority 2020, published 2023):
Numbered stars: 1 amine (or outer) side, 2 acyl side, 3 side chain; on linkers, the order of the positions; unused ones are H or OH. Bridge positions count the residues as written; N and C are the ends. Square brackets hold non-standard residues; d marks the D form. Peptide text beside a SMILES is read from it. X1 = CC(=O)NC(C(=O)OC(C(C)C)C(N[*:1])C(=O)[*:2])C(O)C(C)C; PhLac = O=C(O)[CH](O)Cc1ccccc1; NMeT = CN[CH](C(=O)O)[CH](C)O; NMeA = CN[CH](C)C(=O)O; NMeDha = C=C(NC)C(=O)O

Legend:
[1] = biological target: T1, α2B ADR (Homo sapiens, UniProt P18089); experiment: DMR in α2B-HEK293 (stable) cells; assay type: cell-based
T1 construct: expressed in transfected cells
T1 sequence (P18089 1-450): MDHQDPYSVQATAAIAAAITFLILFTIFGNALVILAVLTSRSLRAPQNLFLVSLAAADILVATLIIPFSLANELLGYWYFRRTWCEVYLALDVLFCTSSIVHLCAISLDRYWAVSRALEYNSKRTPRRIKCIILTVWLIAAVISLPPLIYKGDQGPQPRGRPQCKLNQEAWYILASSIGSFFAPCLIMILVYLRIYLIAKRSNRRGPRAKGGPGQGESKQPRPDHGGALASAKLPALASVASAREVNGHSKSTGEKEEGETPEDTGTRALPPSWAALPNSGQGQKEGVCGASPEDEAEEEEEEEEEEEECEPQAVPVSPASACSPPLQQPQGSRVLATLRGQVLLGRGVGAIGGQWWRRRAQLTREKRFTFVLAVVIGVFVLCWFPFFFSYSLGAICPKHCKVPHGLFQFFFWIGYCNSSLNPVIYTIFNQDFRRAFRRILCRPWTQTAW

[2] = biological target: T2, α2A ADR (Homo sapiens, UniProt P08913); experiment: DMR in α2A-HEK293 (transient) cells; assay type: cell-based
T2 construct: DYK (FLAG, DYKDDDDK) (N); host or cells: HEK293 (transient, Lipofectamine 3000)
T2 sequence (P08913 1-465): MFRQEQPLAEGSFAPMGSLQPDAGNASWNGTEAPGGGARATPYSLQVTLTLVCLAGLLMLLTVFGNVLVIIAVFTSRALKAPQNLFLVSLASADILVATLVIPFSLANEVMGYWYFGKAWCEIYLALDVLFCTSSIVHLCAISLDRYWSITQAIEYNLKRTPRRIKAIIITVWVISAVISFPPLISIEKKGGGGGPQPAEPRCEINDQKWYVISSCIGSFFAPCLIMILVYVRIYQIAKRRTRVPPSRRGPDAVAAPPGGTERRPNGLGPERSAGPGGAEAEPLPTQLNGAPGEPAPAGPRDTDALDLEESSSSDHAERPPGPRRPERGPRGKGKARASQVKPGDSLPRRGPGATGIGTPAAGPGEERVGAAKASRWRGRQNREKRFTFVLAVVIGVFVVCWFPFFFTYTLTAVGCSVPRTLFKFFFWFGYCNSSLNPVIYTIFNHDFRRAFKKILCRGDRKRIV
Protocol: The cells were grown in DMEM (100 μL) media supplemented with FBS (10%), penicillin (100 U/mL) and streptomycin (100 μg/mL) in a humidified atmosphere at 37° C. in 5% CO2 for 1 day before proceeding for the DMR experiments. For gain of function studies of α2A ADR, parental HEK293 cells were transfected with pcDNA3.1(+)-N-DYK empty vector or with pcDNA3.1(+)-ADRA2A-N-DYK clone (clone id: OHu19050C-GenScript) using Lipofactamine 3000 Transfection kit-Invitrogen (Cat. L3000008). DMR studies were performed on transiently transfected cells after 2 days post transfection. Prior to run the DMR experiment, cells were washed with 1×HBSS buffer with HEPES (20 mM, pH 7.4) and allowed to temperature equilibrate for 1 h at room temperature in 100 μL of the same buffer. Basal DMR response were graphed for around 15 min to obtain a baseline read that defines the zero level and also ensures the signal is stable.

[3] = system: MEG01 cells; experiment: Dynamic mass redistribution (DMR) in MEG01 cells; assay type: cell-based, human; details: for DMR response to ATP after ADR inhibitors: ATP 50 μM; for PAGln-induced DMR response after ADR inhibitors: 30 min
Protocol: (§1) Before proceeding for the experiments, cells were subjected to overnight incubation in reduced serum media opti-MEM. […] The cells were briefly centrifuged at room temperature at low speed (100 g for 10-15 sec) to allow settling down the cells at the bottom of the plate. After that, cells were allowed to temperature equilibrate for 1 h at room temperature prior to run DMR measurement. Firstly, basal DMR responses were graphed for around 15 min to obtain a baseline read that defines the zero level and also ensures the signal is stable. […] DMR response signal was recorded for 60-90 minutes post compound of interest addition.

[4] = system: washed human platelets; experiment: cAMP assay in washed human platelets; assay type: cell-based
Protocol: Real-time (RT) PCR in MEG01 cells: Total RNA was isolated from MEG01 cells following TRIZOL RNA isolation protocol post 40 h of siRNA transfection. […] Real time (RT) PCR was carried out following TaqMan Gene Expression Assays protocol using RT primers and probes of ADRA2A (assay Id Hs01099503_s1), ADRA2B (assay Id Hs00265081 s1) and ADRB2 (assay Id Hs00240532_s1) from ThermoFisher Scientific. cAMP assay in MEG01, Platelets and HEK293 cells: Intracellular cAMP levels were measured using CatchPoint Cyclic-AMP Fluorescent Assay Kit from molecular devices (Cat. R8089). Briefly, MEG01 cells were washed with 1×HBSS buffer with HEPES (20 mM; pH 7.4) and re-suspended in stimulation buffer (1×HBSS, HEPES (20 mM); pH 7.4, IBMX (0.5 mM), Rolipram (0.1 mM) and BSA (0.1%)). The cells were further seeded into 96 well cell culture plates with a density of ˜100 k cells per well in 100 μL stimulation buffer. Similarly, human washed platelets re-suspended very gently in stimulation buffer and seeded into a 96-well cell culture plates with ˜4-6 million platelets per well in 100 μL stimulation buffer. Both the MEG01 cells and platelets were kept thereafter at 37° C. incubator for 10 min before addition of the inhibitors or test compounds. Following incubation with stimulation buffer, 10 μL (10× concentration) of modulators/inhibitors (when necessary) were added and kept for 15 min at 37° C. […] For the quantification of cAMP, the lysed sample (40 μL), buffer control and cAMP calibrators were added in appropriate wells of a 96-well clear bottom, black wall cAMP assay plates (provided in the kit). […] The plate was covered with aluminum foil and left at room temperature for at least 10 min before reading fluorescence intensity in a FlexStation 3 Multi-Mode Microplate Reader-Molecular devices. […] Intracellular Ca^2+ measurement: Intracellular Ca^2+ in MEG01, HEL92.1.7, parental HEK293, β2-HEK293 (stable) cells, empty vector (EV) transfected HEK293 cells, ADRA2A transfected HEK293 cells and in α2B-HEK293 stable cells was measured using FLIPR Calcium 5 Assay Kit-Molecular devices (Cat. R8186). […]

[5] = system: MEG01 cells; experiment: cAMP assay in MEG01 cells; assay type: cell-based, human
Protocol: Real-time (RT) PCR in MEG01 cells: Total RNA was isolated from MEG01 cells following TRIZOL RNA isolation protocol post 40 h of siRNA transfection. […] Real time (RT) PCR was carried out following TaqMan Gene Expression Assays protocol using RT primers and probes of ADRA2A (assay Id Hs01099503_s1), ADRA2B (assay Id Hs00265081 s1) and ADRB2 (assay Id Hs00240532_s1) from ThermoFisher Scientific. cAMP assay in MEG01, Platelets and HEK293 cells: Intracellular cAMP levels were measured using CatchPoint Cyclic-AMP Fluorescent Assay Kit from molecular devices (Cat. R8089). Briefly, MEG01 cells were washed with 1×HBSS buffer with HEPES (20 mM; pH 7.4) and re-suspended in stimulation buffer (1×HBSS, HEPES (20 mM); pH 7.4, IBMX (0.5 mM), Rolipram (0.1 mM) and BSA (0.1%)). The cells were further seeded into 96 well cell culture plates with a density of ˜100 k cells per well in 100 μL stimulation buffer. Similarly, human washed platelets re-suspended very gently in stimulation buffer and seeded into a 96-well cell culture plates with ˜4-6 million platelets per well in 100 μL stimulation buffer. Both the MEG01 cells and platelets were kept thereafter at 37° C. incubator for 10 min before addition of the inhibitors or test compounds. Following incubation with stimulation buffer, 10 μL (10× concentration) of modulators/inhibitors (when necessary) were added and kept for 15 min at 37° C. […] The test compounds were made in buffer T (1×HBSS, HEPES (20 mM); pH 7.4, IBMX (0.5 mM) and Rolipram (0.1 mM)). The reaction was stopped by adding 50 μL of lysis buffer (provided in the kit CatchPoint Cyclic-AMP Fluorescent Assay Kit Cat. R8089-Molecular Devices), further added with IBMX (0.5 mM) and Rolipram (0.1 mM)) and agitated for 10 min in a plate shaker to facilitate cell lysis. Lysed cells are immediately proceeded to cAMP assay. For the quantification of cAMP, the lysed sample (40 μL), buffer control and cAMP calibrators were added in appropriate wells of a 96-well clear bottom, black wall cAMP assay plates (provided in the kit). Thereafter, reconstituted rabbit anti-cAMP antibody (40 μL) was added to all the wells and mix for 5 min on a plate shaker to ensure mixing. In the next step, reconstituted HRP-cAMP conjugate (40 μL) was added to every well, mixed properly and kept at room temperature for 2 h. The plate contents were aspirated thereafter and washed with wash buffer (300 μL (provided in the kit)) 4 times. Spotlight red substrate (provided in the kit) was added to each well minimizing the time between starting and finishing in dark. The plate was covered with aluminum foil and left at room temperature for at least 10 min before reading fluorescence intensity in a FlexStation 3 Multi-Mode Microplate Reader-Molecular devices. […] For cAMP assay in adherent cell lines, parental HEK293, and β2-HEK293 (stable) cells were seeded into 96-well cell culture microplates with approximately 50 k cells per well in DMEM (100 μL) media supplemented with FBS (10%), penicillin (100 U/mL) and streptomycin (100 μg/mL) in a humidified atmosphere at 37° C. in 5% CO2. Cells were grown for 24 h before proceeding for cAMP experiment following similar method as described for MEG01 cells. Intracellular Ca^2+ measurement: Intracellular Ca^2+ in MEG01, HEL92.1.7, parental HEK293, β2-HEK293 (stable) cells, empty vector (EV) transfected HEK293 cells, ADRA2A transfected HEK293 cells and in α2B-HEK293 stable cells was measured using FLIPR Calcium 5 Assay Kit-Molecular devices (Cat. R8186). […]

[6] = system: human platelet rich plasma (PRP); experiment: Platelet aggregometry in platelet rich plasma; assay type: cell-based; details: inhibitor 10 μM; PAGln 100 μM; ADP 2 μM
Protocol: ADP (up to 4 μM), TRAP6 (up to 10 μM) and collagen (up to 1.0 μg/mL) were used as indicated to initiate aggregation with constant stirring (600 rpm).

[7] = system: HEL92.1.7 cells; experiment: Dynamic mass redistribution (DMR) in HEL92.1.7 cells; assay type: cell-based, human
Protocol: as §1

[8] = vs parental HEK293, PAGln 100 μM, B-HT933 50 μM

## CCN1CCc2nc(N)oc2CC1 [B-HT933]
[1]; [8]
  agonist-evoked DMR response: elevated B-HT933-elicited DMR response
[2]; [8]
  agonist-evoked DMR response: elevated B-HT933-elicited DMR response

## Cc1ccc(OCC(O)C(C)NC(C)C)c2c1CCC2 (stereo not drawn) [ICI118,551]
[3]; inhibitor 10 μM
  DMR response to ATP after ADR inhibitors: remained unchanged
[3]; ISO 10 μM, inhibitor 10 μM
  DMR response of isoproterenol (ISO) after ADR inhibitors: diminished
[3]; PAGln 100 μM, inhibitor 10 μM
  PAGln-induced DMR response after ADR inhibitors: substantially reduced
[4]
  intracellular cAMP production after ISO treatment, with ADR inhibitors: reduced
[4]; PAGln 5 min exposure
  PAGln induced intracellular cAMP production after ADR inhibitors: inhibited PAGln (5 min exposure) induced intracellular cAMP production
[5]
  intracellular cAMP production after ISO treatment, with ADR inhibitors: reduced
[5]; PAGln 100 μM, 5 min exposure, inhibitor 10 μM
  PAGln induced intracellular cAMP production after ADR inhibitors: inhibited PAGln (5 min exposure) induced intracellular cAMP production

## COC1(C2=NCCN2)COc2ccccc2O1 (stereo not drawn) [RX821002]
[3]; inhibitor 10 μM
  DMR response to ATP after ADR inhibitors: remained unchanged
[3]; B-HT933 50 μM, inhibitor 10 μM
  DMR response of B-HT933 after ADR inhibitor: appropriately inhibited
[3]; PAGln 100 μM, inhibitor 10 μM
  PAGln-induced DMR response after ADR inhibitors: substantially reduced
[1]
  B-HT933-elicited DMR response after ADR inhibitor: attenuated by RX821002
[1]; inhibitor 10 μM, 30 min
  PAGln-induced DMR response after ADR inhibitor: reversed
[6]
  PAGln induced hyperresponsiveness of platelet aggregation: attenuated the PAGln induced hyperresponsiveness
[2]
  B-HT933-elicited DMR response after ADR inhibitor: attenuated by RX821002
[2]; inhibitor 10 μM, 30 min
  PAGln-induced DMR response after ADR inhibitor: reversed

## CN=c1nc(-c2ccccc2)n(-c2ccccc2)s1 [SCH-202676]
[3]; PAGln 100 μM, PTX 100 ng/mL, CTX 1 μg/mL, YM-254890 0.5 μM, SCH-202676 1 μM
  PAGln-induced DMR response after G-protein modulators: significantly reduced
[4]; pretreatment with modulator
  PAGln-evoked cAMP production after GPCR modulators: inhibited PAGln-evoked cAMP production
[5]; pretreatment with modulator
  PAGln-evoked cAMP production after GPCR modulators: inhibited PAGln-evoked cAMP production

## C=C1C(=O)NC(C)C(=O)N(C)C(C)C(=O)NC(C(OC(=O)C(NC(C)=O)C(O)C(C)C)C(C)C)C(=O)N(C)C(C(C)OC)C(=O)OC(C)C(NC(C)=O)C(=O)OC(Cc2ccccc2)C(=O)N1C (stereo not drawn) [YM-254890] (Ac-T[PhLac][NMeDha]A[NMeA][X1][NMeT](Me); ester 1-C; configuration not given here)
[7]
  PAGln induced DMR response after G-protein modulators: significant reduction in PAGln induced DMR response
